# According to patent publication US20250382298A1, “NITROGEN-CONTAINING COMPOUND AND USE THEREOF” (SUZHOU GENHOUSE BIO CO., LTD., priority 2022, published 2025):
# pEC50, pIC50: −log10 of the molar value.
# Tests used:
# OVCAR3 cells [1] = experiment: Detection of OVCAR3 cell proliferation activity by CTG method; type: cell-based; details: Homo sapiens, OVCAR-3, 168 h, CellTiter-Glo, 7 days
# Description: (§1) This assay can be used to examine the potency of compounds in inhibiting the proliferation of tumor cells (OVCAR3, HT-29, BT-549, HCT-116). A lower IC50 value indicates high potency of the compound as a KIF18A inhibitor in the following assay setup,
# 1640 medium; fetal bovine serum; penicillin/streptomycin antibiotics purchased from Wisent; CellTiter-Glo (chemiluminescence detection reagent for cell viability) reagent purchased from Promega; OVCAR3 cell line purchased from Nanjing Cobioer Biosciences Co., Ltd.; Nivo multimode microplate reader (PerkinElmer),
# OVCAR3 cells were seeded into a white 96-well plate, with 80 μL of cell suspension containing 2000 OVCAR3 cells added to each well. The cell plate was incubated in a CO2 incubator overnight.
# A test compound was 5-fold diluted to the 8th concentration (i.e., from 2 mM to […]) using a multichannel pipette, with duplicate wells set up. To an intermediate plate was added 78 μL of medium, and the serially diluted compound was transferred to the corresponding wells of the intermediate plate at 2 μL/well. The mixture was mixed well and then transferred to the cell plate at 20 μL/well. The concentration of the compound transferred to the cell plate ranged from 10 μM to 0.026 nM. The cell plate was incubated in a CO2 incubator for 7 days. Another cell plate was prepared and read for signal values on the day of compound addition, and these values were used as the maximum values (the Max value in the equation below) in data analysis. To this cell plate was added the chemiluminescence detection reagent for cell viability at 25 μL/well, and the luminescence signals were stabilized by incubation at room temperature for 10 min. Readings were taken using the multimode microplate reader.
# To the cell plate was added the chemiluminescence detection reagent for cell viability at 25 μL/well, and the luminescence signals were stabilized by incubation at room temperature for 10 mm. Readings were taken using the multimode microplate reader, […]
# BT-549 cells = experiment: Detection of cell proliferation activity by CCK8 method (BT-549); type: cell-based; details: Homo sapiens, CCK8, 96 h
# Description: as §1
# (§2) McCoy's 5A medium purchased from Sangon Biotech; CCK8 kit purchased from Beyotime; OVCAR3, HT-29, HCT-116, and BT-549 cells purchased from Shanghai Fuheng Biotechnology Co., Ltd.; multimode microplate reader (Thermo).
# (§3) Cells at the logarithmic growth phase were taken, digested with a cell lysis buffer (trypsin), centrifuged, counted, and seeded into a 96-well plate at an appropriate cell density (BT549: 1500 cells/well in 1640 medium. HT-29 and HCT-116: 2000 cells/well in McCoy's 5A medium), with 180 μL per well, for a total of 60 wells. The surrounding wells were filled with an equal amount of PBS to prevent water evaporation from the edge wells. The next day after cell plating, the test compounds at different concentration gradients (with an initial final concentration of 10 μM, diluted in a 1:5 gradient to obtain 9 concentration gradients) were added to the wells. Three replicate wells were set up for each concentration point, and a corresponding DMSO negative control group was also set up. Detection: After 96 h of drug treatment, the test cell culture plate was removed from the incubator. All the liquid in the 96-well plate was aspirated, and 100 μL of medium containing 10% CCK8 solution was added to each well. The plate was then incubated at 37° C. for 2 h (the OD450 of the DMSO group reached 1.5 or more), and the absorbance at 450 nm was measured using a microplate reader
# (§4) After the background value was subtracted from the measurement for each well, the inhibition rate was calculated. Inhibition Rate (%)=(1−Sample/Vehicle)×100. Sample is the luminescence value of the drug treatment group, and Vehicle is the luminescence value of the DMSO control group. A sigmoidal dose-survival rate curve was plotted using a non-linear regression model in the GraphPad Prism 7.0 software, and the IC50 values were calculated.
# HT-29 cells [2] = experiment: Mitotic index analysis, pH3 expression in HT-29 cells; type: cell-based, human; details: Homo sapiens, 24 h treatment
# Procedure: (§5) HCT-116 and HT-29 cells at the logarithmic growth phase were taken, digested with a cell lysis buffer (trypsin), centrifuged, counted, and seeded into a 96-well plate at an appropriate cell density (20000 cells/well), with 100 μL per well. The surrounding wells were filled with an appropriate amount of PBS to prevent water evaporation. The next day, the cells were treated with the compounds at different concentrations (with a starting concentration of 10 μM, 3-fold diluted to obtain 9 concentration gradients). After 24 h, the medium was aspirated, and the cells were washed twice with 100 μL of PBS. The cells were then fixed with 4% paraformaldehyde and incubated at room temperature for 15 min. The fixative solution was discarded, and the cells were washed with PBS. Then, 150 μL of specialized blocking solution (containing 1% Triton-100) was added to each well for blocking at room temperature for 2 h, and the plate was washed with PBS to remove excess blocking solution. Anti-phistone H3 (pH3) was diluted at a ratio of 1:1000 with a blocking solution containing 0.033% Triton-100, and a blank control group was set up. Then, incubation was performed at 4° C. overnight. The next day, the plate was washed twice with 1×PBST. Anti-rabbit-IgG (H+L) (CST) and DRAQ5 (Thermofisher) were each diluted at an appropriate ratio with a blocking solution containing 0.033% Triton-100 (secondary antibody: 1:2000; DRAQ5: 1:10000). Then, incubation was performed at room temperature for 2 h. The plate was washed twice with 1×PBST and once with PBS. Fluorescence signals at 700 nm and 800 nm were detected using a Li—COR Odyssey two-color near-infrared laser imager. Calculation was performed as follows: pH3 expression (%)=(Cmpd dose/DMSO control)×100. Cmpd dose is the value of the drug treatment group, and DMSO control is the value of the DMSO control group. The EC50 values were determined by fitting using the GraphPad Prism 7.0 software.
# HT-29 cells [3] = experiment: Detection of cell proliferation activity by CCK8 method (HT-29); type: cell-based, human; details: Homo sapiens, CCK8, 96 h
# Description: as §1, §2, §3, §4
# HCT-116 cells [4] = experiment: Detection of cell proliferation activity by CCK8 method (HCT-116); type: cell-based; details: Homo sapiens, CCK8, 96 h
# Description: as §1, §2, §3, §4
# HCT-116 cells [5] = experiment: Mitotic index analysis, pH3 expression in HCT-116 cells; type: cell-based; details: Homo sapiens, 24 h treatment
# Procedure: as §5
# OVCAR3 cells [6] = experiment: Detection of cell proliferation activity by CCK8 method (OVCAR3); type: cell-based; details: Homo sapiens, OVCAR-3, CCK8, 96 h
# Description: as §1, §2, §3, §4
Compound,pIC50 (OVCAR3 cells [1]),pIC50 (BT-549 cells),pEC50 (HT-29 cells [2]),pIC50 (HT-29 cells [3]),pIC50 (HCT-116 cells [4]),pEC50 (HCT-116 cells [5]),pIC50 (OVCAR3 cells [6])
O=C(Nc1csc(C2CCC(F)(F)CC2)n1)c1ccc(NS(=O)(=O)CCO)cc1N1CCC2(CC1)CC2 [Compound 1],6.78,–,–,–,–,–,–
O=C(Nc1nc(N2CCC(F)(F)CC2)nc2ccccc12)c1ccc(NS(=O)(=O)CCO)cc1N1CCC2(CC1)CC2 [Compound 2],5.28,–,–,–,–,–,–
Cc1cc(NC(=O)c2ccc(NS(=O)(=O)CCO)cc2N2CC3CC(C3)C2)nc(N2CCC(F)(F)CC2)n1 [Compound 4],6.73,–,–,–,–,–,–
Cc1cc2nc(NC(=O)c3ccc(NS(=O)(=O)CCO)cc3N3CCC4(CC3)CC4)nc(N3CCC(F)(F)CC3)c2s1 [Compound 7],5.70,–,–,–,–,–,–

# Further lines, results first:
pIC50 (OVCAR3 cells [1]),pIC50 (BT-549 cells),pEC50 (HT-29 cells [2]),pIC50 (HT-29 cells [3]),pIC50 (HCT-116 cells [4]),pEC50 (HCT-116 cells [5]),pIC50 (OVCAR3 cells [6]),Compound
6.91,–,–,–,–,–,–,O=C(Nc1cc2ccccc2c(N2CCC(F)(F)CC2)n1)c1ccc(NS(=O)(=O)CCO)cc1N1CC2CCC(C2)C1 [Compound 9]
7.28,6.72,7.03,6.47,< 5.00,< 5.00,–,O=C(Nc1cc2nccn2c(N2CCC(F)(F)CC2)n1)c1ccc(NS(=O)(=O)CCO)cc1N1CCC2(CC1)CC2 [Compound 16]
7.19,6.98,7.32,7.13,< 5.00,< 5.00,7.52,O=C(Nc1cn2ccnc2c(N2CC3CCC(C3)C2)n1)c1ccc(NS(=O)(=O)CCO)cc1N1CCC2(CC1)CC2 [Compound 30]
